In patent US20020168365A1, “Method for modulating granzyme B uptake and for identifying modulators thereof” (priority 2000, published 2002):

Key:
CI-MPR^+ cells = experiment: TUNEL and annexin V apoptosis assays with grB and AD; format: cell-based, murine L cells transfected with human CI-MPR
Description: (§1) For the in vitro killing assays, 10 pfu per cell of replication-deficient adenovirus (AD) were added subsequent to grB addition. Analysis of DNA fragmentation by TUNEL analysis has been described previously (Heibein et al., 1999). TUNEL materials (Roche Diagnostics) were used as per the manufacturer's instructions. Phosphatidylserine externalization was measured as previously described (Heibein et al., 1999) using annexin V-FITC (PharMingen). Percent specific TUNEL/annexin V positive cells was calculated as: [(% positive labeling cells with grB and AD-% positive labeling cells without grB and AD)/(100-% positive labeling cells without grB and AD)]×100.

MPR^− cells = experiment: as above; format: cell-based, murine; conditions: 100 ng/ml grB and AD, 3 hr
Description: as §1

wild-type L cells = experiment: as above; format: cell-based, murine
Description: as §1

[1] = grB enzymatic activity (ASPase assay); format: biochemical, human
Text: Human grB was purified from the cytolytic granules of YT-Indy cells as described previously (Caputo et al., 1999). GrB was derivatized with sulfo-NHS-biotin (Pierce) or OG 488 (Molecular Probes) as per the manufacturer's directions for labeling protein. Derivatized grB was separated from unbound probe by passing the material through a Sephadex G-25 column (HiTrapθ Desalting column, Pharmacia Biotech) with saline or phosphate-buffered saline (PBS) as the buffer. Typically the concentration of unlabeled grB was ˜50 μg/ml, whereas the estimated concentration of derivatized material was ˜5 μg/ml. GrB was assayed for enzymatic activity using an ASPase assay as previously described (Caputo et al., 1993).

[2] = system: breast carcinoma cell lines (T47-D, MDA-MB-231, SK-BR-3, MCF-7); experiment: grB/AD-mediated apoptosis (TUNEL, annexin V) in carcinoma cell lines; format: cell-based, human
Description: Cells were resuspended at 10^6 cells/ml in 0.1% BSA/DMEM. Adenovirus (10 PFU/cell) and granzyme B (grB) were added directly to the cell suspension. Cells were incubated at 37° C. for 3 h. For staurosporine killing, cells were resuspended at 10^6 cells/ml in their normal growth medium and staurosporine (2.5 μM) was added directly to the cell suspension. Cells were incubated at 37° C. for 2, 4 and 8 h. DNA fragmentation was monitored by flow cytometric analysis via the terminal deoxynucleotidyltransferase-mediated dUTP-biotin nick end labeling (TUNEL) method. Flow cytometric analysis was performed on a Becton Dickinson FACScanθ flow cytometer equipped with an argon-ion laser with 15 mW of excitation at 488 nm. Emission wavelengths were detected through the FL1 channel. Data were acquired on 10,000 cells per sample with light scatter signals at linear gain and fluorescence signals at logarithmic gain. Percent specific TUNEL positive cells was calculated as follows: [(% positive labeling cells with grB and AD−% positive labeling cells without grB and AD)/(AD−% positive labeling cells without grB and AD)]×100. Phosphatidylserine externalization was monitored using the ApoAlertθ annexin V apoptosis kit (Clontech) according to the protocol provided by the manufacturer. Flow cytometric analysis was performed on a Becton Dickinson FACScanθ flow cytometer equipped with an argon-ion laser with 15 mW of excitation at 488 nm. Emission wavelengths were detected through the FL1 channel. Data were acquired on 10,000 cells per sample with light scatter signals at linear gain and fluorescence signals at logarithmic gain. Percent specific Annexin V positive cells was calculated as follows: [(% positive labeling cells with grB and AD−% positive labeling cells without grB and AD)/(AD−% positive labeling cells without grB and AD)]×100.

procaspase-3 = experiment: Caspase 3 cleavage by Western blotting; format: cell-based, human; conditions: grB (18 nM) and AD, 3 hr
Description: Cells were resuspended at 10^6 cells/ml in 0.1% BSA/DMEM. Adenovirus (10 PFU/cell) and granzyme B (grB) were added directly to the cell suspension. Cells were incubated at 37° C. for 3 h. For staurosporine killing, cells were resuspended at 10^6 cells/ml in their normal growth medium and staurosporine (2.5 μM) was added directly to the cell suspension. Cells were incubated at 37° C. for 2, 4 and 8 h. Cellular lysates were collected by directly harvesting 10^5 cells into 100 μl of sodium dodecyl sulfate-polyacrylamide gel electrophoresis (SDS-PAGE) gel loading buffer and subjected to SDS-PAGE analysis. Proteins were transferred to nitrocellulose (Micron Separations Inc.) by using a semidry transfer apparatus (Tyler Corp.) for 1 h at 150 mA. Membranes were blocked in phosphate-buffered saline (PBS) containing 0.1% Tween 20 (ICN Biomedicals Inc.) and 5% skim milk for 16 h. Caspase 3 was detected using polyclonal rabbit anti-caspase 3 at a dilution of 1:10,000. The membrane was incubated with the primary antibody for 2 h, after which the blot was washed three times in PBS containing 0.1% Tween 20. The membranes were probed with a horseradish peroxidase-conjugated goat anti-rabbit secondary antibody (Bio-Rad Laboratories) at a 1:20,000 dilution. Transferred proteins were visualized with a chemiluminescence detection system (Amersham Inc.).

CD-MPR^+ cells = experiment: GrB uptake (unpublished findings); format: cell-based, murine L cells transfected with human CD-MPR; conditions: CD-MPR-overexpressing CD-MPR^+ cells
[3] = at later times (data not shown)
[4] = at the time-point of the assay (3 hr)
[5] = all the carcinoma cell lines, 3 hr

## grB: Human serine proteinase granzyme B purified from the cytolytic granules of YT-Indy cells
CI-MPR^+ cells; [3]
  TUNEL and annexin V positive cells: ~100%
CI-MPR^+ cells; [4]
  TUNEL and annexin V positive cells: about 30%
MPR^− cells
  grB and AD-induced DNA fragmentation: relatively resistant
wild-type L cells; [3]
  TUNEL and annexin V positive cells: ~100%
wild-type L cells; [4]
  TUNEL and annexin V positive cells: about 30%
[1]; grB treated with catalytic subunit of protein phosphatase-1 (data not shown)
  enzymatic activity of grB: did not lose
[1]; grB treated with phosphatase in a phosphate-free buffer
  enzymatic activity of grB: no effect
[2]; MCF-7 cells, granzyme B and adenovirus
  DNA fragmentation or phosphatidylserine externalization: no DNA-fragmentation or phosphatidylserine externalization could be detected
[2]; T47-D cells, granzyme B and adenovirus
  phosphatidylserine exposure or DNA fragmentation: unable to detect any phosphatidylserine exposure or DNA fragmentation
[2]; [5]
  annexin V binding after grB and AD: did not bind annexin V
  grB and AD-mediated DNA fragmentation: resistant
procaspase-3; Jurkat cells
  cleavage of procaspase-3: able to observe cleavage
procaspase-3; MDA-MB-231 cells
  cleavage of procaspase-3: unable to observe any cleavage
procaspase-3; SK-BR-3 cells
  cleavage of procaspase-3: unable to observe any cleavage
procaspase-3; T47-D cells
  cleavage of procaspase-3: able to observe cleavage
CD-MPR^+ cells
  grB uptake: essentially no grB uptake
